Assay results from patent publication US5153194A, “Thienocycloheptapyridazine compounds and their pharmaceutical use” (Yoshitomi Pharmaceutical Industries, Ltd., priority 1988, dated 1992).

How the values were obtained:
[1] = biological target: benzodiazepine (BZP) receptors; test: Displacement ability for benzodiazepine (displacement of tritiated diazepam); type: binding, rat (male Wistar; settings: displacement of tritiated diazepam (2 nM), rat cerebral cortex synaptosomes, 0° C., 20 minutes, pH 7.4; read-out: Affinity to BZP Receptors, Ki
Method: The experiment for specific affinity to benzodiazepine receptors was carried out in accordance with the method described in Life Science, vol. 20, 2101 (1977).
The crude cynaptosome fraction was isolated from the cerebral cortex of male Wistar rats aged 9-10 weeks, and was suspended in 50 mM Tris-hydrochloric acid buffer solution (pH 7.4) containing 120 mM sodium chloride and 5 mM potassium chloride. These suspensions were used for the experiment.
The test compounds in several different concentrations and tritiated diazepam (in final concentration of 2 nM) were added to the synaptosome suspensions, and the mixtures were incubated at 0° C. for 20 minutes. These suspensions were filtered with Whatman GF/B glassfiber filters. After the filters were washed with the above-mentioned buffer solution, the radioactivity left on the filters was measured with the use of a liquid scintillation counter.
Specific binding was determined by subtracting binding in the presence of 10^-6 M unlabelled diazepam from total binding.
According to the foregoing experimental method, the binding force to benzodiazepine receptors of the compound of the present invention is evaluated from its displacement ability for tritiated diazepam at its binding site, which is represented by Ki value (nM).

[2] = tested on: tonic convulsion induced by (+) bicuculline; test: Anti-bicuculline action (bicuculline-induced tonic convulsion); type: in vivo, mouse (male ddY); settings: Mus musculus; oral, 1 hour before (+) bicuculline 0.6 mg/kg i.v.; tonic convulsion within 5 minutes
Method: The anti-bicuculline action test was carried out in accordance with the method described in Life Science, vol. 21, 1779 (1977).
Male ddY mice weighing 20-28 g, 7-14 animals per group, were used. One hour after the oral administration of the test compounds, (+) bicuculline was intravenously administered at the dosage of 0.6 mg/kg, and 50% effective concentration (ED50) was estimated by examining whether tonic convulsion within 5 minutes was caused or not.

[3] = tested on: amnesia-induced mice (electroconvulsive shock); test: Action on experimental amnesia (ECS-induced amnesia, step-through passive avoidance); type: in vivo, mouse (male ddY); settings: 2.5 mg/kg (i.p.) or more, 30 minutes before acquisition trial; retention test 24 hours after
Method: Twenty male ddY mice were used per group to investigate the action of the test compounds on learning and memory ability of amnesia-induced mice by observing a step-through passive avoidance reflex. Amnesia-induced animals were prepared by applying electroconvulsive shock (ECS) soon after the acquisition trial and the retention test was carried out 24 hours after the acquisition trial. Test compounds were administered intraperitoneally (i.p.) 30 minutes before the acquisition trial.

ddY mice = test: Acute toxicity; type: in vivo, mouse (male ddY); settings: 5 days
Excerpt: Five male ddY mice were used per group.

Cc1cc2c(s1)CCCC1CC(=O)N(c3ccc(Cl)cc3)N=C21 (stereo not shown) [Example 1, 2-(4-chlorophenyl)-9-methyl-2,4,4a,5,6,7-hexahydro-3H-thieno[2',3':6,7]cyclohepta[1,2-c]pyridazin-3-one]
Ki [1]: 4.8 nM
ED50 [2]: 8.1 mg/kg

COc1ccc(N2N=C3c4cc(C)sc4CCCC3CC2=O)cc1 (stereo not shown) [Example 4, 2-(4-methoxyphenyl)-9-methyl-2,4,4a,5,6,7-hexahydro-3H-thieno[2',3':6,7]cyclohepta[1,2-c]pyridazin-3-one]
latency time in the trial of the retention test [3]: significantly prolonged the latency time
Ki [1]: 1.1 nM
survival, acute toxicity, intraperitoneal (ddY mice; 300 mg/kg i.p., five mice): all mice survived for 5 days
survival, acute toxicity, oral (ddY mice; 1000 mg/kg oral): survived for 5 days

Cc1cc2c(s1)CCCc1cc(=O)n(-c3ccc(Cl)cc3)nc1-2 [Example 5, 2-(4-chlorophenyl)-2,5,6,7-tetrahydro-9-methyl-3H-thieno[2',3':6,7]cyclohepta[1,2-c]pyridazin-3-one]
ED50 [2]: 9.8 mg/kg
